# Experimental data: the kinase profiling compilation of Christmann-Franck et al. (2016)
# Key:
# Assay in all cases: radiometric filter-binding kinase assay, Kinase HotSpot
# Conditions in all cases: compound 0.5 µM; ATP 10 µM
# ACVR1B (human) = ACVR1B (human) (UniProt P36896)
# ADRBK1 (human) = ADRBK1 (human) (UniProt P25098)
# BRSK1 (human) = BRSK1 (human) (UniProt Q8TDC3)
# CAMK1 (human) = CAMK1 (human) (UniProt Q14012)
# CDC42BPA (human) = CDC42BPA (human) (UniProt Q5VT25)
# CDK2 CCNA2 (human) = CDK2 CCNA2 (human) (UniProt P24941+P20248)
# CDK6 CCND1 (human) = CDK6 CCND1 (human) (UniProt Q00534+P24385)
# CLK3 (human) = CLK3 (human) (UniProt P49761)
# CSNK1G2 (human) = CSNK1G2 (human) (UniProt P78368)
# DMPK (human) = DMPK (human) (UniProt Q09013)
# DSTYK (human) = DSTYK (human) (UniProt Q6XUX3)
# DYRK3 (human) = DYRK3 (human) (UniProt O43781)
# ERBB4 (human) = ERBB4 (human) (UniProt Q15303)
# FGFR2 (human) = FGFR2 (human) (UniProt P21802)
# FYN (human) = FYN (human) (UniProt P06241)
# GSK3B (human) = GSK3B (human) (UniProt P49841)
# IRAK1 (human) = IRAK1 (human) (UniProt P51617)
# KIT (human) = KIT (human) (UniProt P10721)
# LRRK2 (human) = LRRK2 (human) (UniProt Q5S007)
# MAP3K3 (human) = MAP3K3 (human) (UniProt Q99759)
# MAPK14 (human) = MAPK14 (human) (UniProt Q16539)
# MST1R (human) = MST1R (human) (UniProt Q04912)
# NEK1 (human) = NEK1 (human) (UniProt Q96PY6)
# NLK (human) = NLK (human) (UniProt Q9UBE8)
# PAK3 (human) = PAK3 (human) (UniProt O75914)
# PBK (human) = PBK (human) (UniProt Q96KB5)
# PIM1 (human) = PIM1 (human) (UniProt P11309)
# PIM2 (human) = PIM2 (human) (UniProt Q9P1W9)
# PLK2 (human) = PLK2 (human) (UniProt Q9NYY3)
# PRKCB1 (human) = PRKCB1 (human) (UniProt P05771)
# PRKCH (human) = PRKCH (human) (UniProt P24723)
# PRKCZ (human) = PRKCZ (human) (UniProt Q05513)
# PRKD2 (human) = PRKD2 (human) (UniProt Q9BZL6)
# RET (human) = RET (human) (UniProt P07949)
# ROCK1 (human) = ROCK1 (human) (UniProt Q13464)
# RPS6KA6 KD1 KD2 (human) = RPS6KA6 KD1 KD2 (human) (UniProt Q9UK32)
# SGK3 (human) = SGK3 (human) (UniProt Q96BR1)
# STK11 (human) = STK11 (human) (UniProt Q15831)
# STK25 (human) = STK25 (human) (UniProt O00506)
# STK33 (human) = STK33 (human) (UniProt Q9BYT3)
# TGFBR1 (human) = TGFBR1 (human) (UniProt P36897)
# NEK2 (human) = NEK2 (human) (UniProt P51955)
# Chain of NEK2 (human) (P51955 whole entry, looked up): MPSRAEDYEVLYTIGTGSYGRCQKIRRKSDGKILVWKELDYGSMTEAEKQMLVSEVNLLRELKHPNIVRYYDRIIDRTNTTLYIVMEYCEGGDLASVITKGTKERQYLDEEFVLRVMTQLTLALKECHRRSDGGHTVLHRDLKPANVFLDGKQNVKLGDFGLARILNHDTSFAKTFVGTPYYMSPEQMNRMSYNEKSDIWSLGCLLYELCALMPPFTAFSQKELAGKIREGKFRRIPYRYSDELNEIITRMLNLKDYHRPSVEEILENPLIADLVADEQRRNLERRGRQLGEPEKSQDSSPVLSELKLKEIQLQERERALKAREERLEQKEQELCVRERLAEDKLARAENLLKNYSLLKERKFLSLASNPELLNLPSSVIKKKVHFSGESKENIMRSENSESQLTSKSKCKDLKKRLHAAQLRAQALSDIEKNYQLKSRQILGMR
# Chain of IRAK1 (human) (P51617 whole entry, looked up): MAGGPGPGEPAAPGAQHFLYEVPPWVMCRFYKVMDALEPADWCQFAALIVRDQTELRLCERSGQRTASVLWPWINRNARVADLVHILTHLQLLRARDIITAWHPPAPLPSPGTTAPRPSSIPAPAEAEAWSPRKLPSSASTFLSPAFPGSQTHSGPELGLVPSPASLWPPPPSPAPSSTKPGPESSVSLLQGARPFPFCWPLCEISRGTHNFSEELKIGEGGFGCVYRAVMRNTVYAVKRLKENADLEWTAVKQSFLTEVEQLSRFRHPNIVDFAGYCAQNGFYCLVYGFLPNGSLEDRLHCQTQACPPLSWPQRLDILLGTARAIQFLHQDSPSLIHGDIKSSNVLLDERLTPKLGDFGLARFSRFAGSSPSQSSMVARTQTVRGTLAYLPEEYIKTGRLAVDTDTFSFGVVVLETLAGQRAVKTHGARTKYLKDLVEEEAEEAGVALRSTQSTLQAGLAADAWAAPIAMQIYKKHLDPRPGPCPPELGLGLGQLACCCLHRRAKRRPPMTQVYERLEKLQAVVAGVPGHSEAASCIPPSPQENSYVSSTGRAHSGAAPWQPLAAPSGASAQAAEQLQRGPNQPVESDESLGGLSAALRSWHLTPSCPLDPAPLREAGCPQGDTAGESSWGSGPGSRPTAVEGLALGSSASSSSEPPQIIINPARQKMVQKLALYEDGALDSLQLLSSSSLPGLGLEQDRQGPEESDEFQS
# Chain of DYRK3 (human) (O43781 whole entry, looked up): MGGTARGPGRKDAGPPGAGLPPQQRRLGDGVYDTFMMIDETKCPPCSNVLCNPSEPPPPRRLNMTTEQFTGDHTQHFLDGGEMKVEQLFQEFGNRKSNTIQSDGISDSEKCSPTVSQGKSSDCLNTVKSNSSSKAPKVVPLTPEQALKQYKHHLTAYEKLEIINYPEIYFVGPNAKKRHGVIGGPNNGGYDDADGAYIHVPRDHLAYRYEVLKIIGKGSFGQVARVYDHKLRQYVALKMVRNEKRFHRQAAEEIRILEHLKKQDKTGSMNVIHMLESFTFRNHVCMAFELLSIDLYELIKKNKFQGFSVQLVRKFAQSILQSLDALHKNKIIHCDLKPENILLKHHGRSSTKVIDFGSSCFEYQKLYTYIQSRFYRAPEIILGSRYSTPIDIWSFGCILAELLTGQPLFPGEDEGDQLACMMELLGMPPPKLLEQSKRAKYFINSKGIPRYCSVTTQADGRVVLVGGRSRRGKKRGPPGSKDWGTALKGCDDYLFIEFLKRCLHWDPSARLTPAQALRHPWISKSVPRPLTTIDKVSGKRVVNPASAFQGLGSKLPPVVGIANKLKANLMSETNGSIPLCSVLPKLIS
# Chain of GSK3B (human) (P49841 whole entry, looked up): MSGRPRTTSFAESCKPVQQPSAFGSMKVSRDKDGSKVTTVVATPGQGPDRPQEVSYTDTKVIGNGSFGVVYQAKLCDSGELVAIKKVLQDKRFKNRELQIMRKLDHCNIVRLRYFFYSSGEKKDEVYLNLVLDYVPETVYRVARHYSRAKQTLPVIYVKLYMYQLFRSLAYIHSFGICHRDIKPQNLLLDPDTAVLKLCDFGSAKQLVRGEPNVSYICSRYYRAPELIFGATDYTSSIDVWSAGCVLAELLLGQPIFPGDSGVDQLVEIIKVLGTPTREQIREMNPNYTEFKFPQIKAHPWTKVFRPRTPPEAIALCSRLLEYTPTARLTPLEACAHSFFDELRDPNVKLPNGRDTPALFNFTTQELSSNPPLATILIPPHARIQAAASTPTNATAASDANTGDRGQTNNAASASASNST
# Chain of ADRBK1 (human) (P25098 whole entry, looked up): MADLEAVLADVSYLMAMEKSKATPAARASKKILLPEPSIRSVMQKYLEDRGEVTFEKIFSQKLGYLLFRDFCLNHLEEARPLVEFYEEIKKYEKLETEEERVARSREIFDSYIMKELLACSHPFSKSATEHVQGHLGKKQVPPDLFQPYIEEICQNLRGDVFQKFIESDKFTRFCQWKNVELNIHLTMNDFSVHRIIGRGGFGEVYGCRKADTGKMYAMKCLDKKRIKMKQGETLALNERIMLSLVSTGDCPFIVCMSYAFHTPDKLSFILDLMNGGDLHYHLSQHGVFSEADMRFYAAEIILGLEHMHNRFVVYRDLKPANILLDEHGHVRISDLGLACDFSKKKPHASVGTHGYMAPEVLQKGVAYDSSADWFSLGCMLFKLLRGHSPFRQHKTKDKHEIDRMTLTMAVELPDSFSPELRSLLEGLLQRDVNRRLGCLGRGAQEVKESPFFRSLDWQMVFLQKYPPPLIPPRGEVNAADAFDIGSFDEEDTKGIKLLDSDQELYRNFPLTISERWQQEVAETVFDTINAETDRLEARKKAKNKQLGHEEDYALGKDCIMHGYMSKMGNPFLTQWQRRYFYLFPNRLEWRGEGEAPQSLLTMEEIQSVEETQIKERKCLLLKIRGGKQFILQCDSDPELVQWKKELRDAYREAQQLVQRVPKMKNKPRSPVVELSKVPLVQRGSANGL
# Chain of CLK3 (human) (P49761 whole entry, looked up): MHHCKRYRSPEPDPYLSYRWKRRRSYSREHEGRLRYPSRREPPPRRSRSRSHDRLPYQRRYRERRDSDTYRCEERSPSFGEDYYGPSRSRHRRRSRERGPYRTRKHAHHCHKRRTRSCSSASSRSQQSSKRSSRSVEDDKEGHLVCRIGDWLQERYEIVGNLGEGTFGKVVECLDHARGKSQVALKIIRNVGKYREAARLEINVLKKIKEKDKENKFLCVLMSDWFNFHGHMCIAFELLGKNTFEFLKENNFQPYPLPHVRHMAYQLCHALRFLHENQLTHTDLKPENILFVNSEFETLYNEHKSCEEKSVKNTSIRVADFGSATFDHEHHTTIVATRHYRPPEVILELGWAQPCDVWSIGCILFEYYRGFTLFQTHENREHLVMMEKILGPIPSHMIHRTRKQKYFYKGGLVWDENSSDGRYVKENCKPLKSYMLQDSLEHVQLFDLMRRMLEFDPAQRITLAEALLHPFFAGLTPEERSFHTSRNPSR
# Chain of FYN (human) (P06241 whole entry, looked up): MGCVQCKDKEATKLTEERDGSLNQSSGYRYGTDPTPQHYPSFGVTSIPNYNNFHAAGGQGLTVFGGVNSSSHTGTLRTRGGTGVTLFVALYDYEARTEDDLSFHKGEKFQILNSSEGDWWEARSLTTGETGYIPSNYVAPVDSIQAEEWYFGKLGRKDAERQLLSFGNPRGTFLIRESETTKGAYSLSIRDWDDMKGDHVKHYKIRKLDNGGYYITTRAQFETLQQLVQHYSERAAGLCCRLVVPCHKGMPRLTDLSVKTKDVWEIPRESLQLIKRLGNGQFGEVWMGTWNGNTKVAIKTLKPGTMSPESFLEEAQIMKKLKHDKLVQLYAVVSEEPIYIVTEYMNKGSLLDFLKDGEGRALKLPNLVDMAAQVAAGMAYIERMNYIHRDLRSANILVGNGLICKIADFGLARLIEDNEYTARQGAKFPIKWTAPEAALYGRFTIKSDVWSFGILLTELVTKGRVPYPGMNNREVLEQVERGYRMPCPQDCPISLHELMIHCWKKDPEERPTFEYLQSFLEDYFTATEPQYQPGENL
# Chain of PRKCB1 (human) (P05771 whole entry, looked up): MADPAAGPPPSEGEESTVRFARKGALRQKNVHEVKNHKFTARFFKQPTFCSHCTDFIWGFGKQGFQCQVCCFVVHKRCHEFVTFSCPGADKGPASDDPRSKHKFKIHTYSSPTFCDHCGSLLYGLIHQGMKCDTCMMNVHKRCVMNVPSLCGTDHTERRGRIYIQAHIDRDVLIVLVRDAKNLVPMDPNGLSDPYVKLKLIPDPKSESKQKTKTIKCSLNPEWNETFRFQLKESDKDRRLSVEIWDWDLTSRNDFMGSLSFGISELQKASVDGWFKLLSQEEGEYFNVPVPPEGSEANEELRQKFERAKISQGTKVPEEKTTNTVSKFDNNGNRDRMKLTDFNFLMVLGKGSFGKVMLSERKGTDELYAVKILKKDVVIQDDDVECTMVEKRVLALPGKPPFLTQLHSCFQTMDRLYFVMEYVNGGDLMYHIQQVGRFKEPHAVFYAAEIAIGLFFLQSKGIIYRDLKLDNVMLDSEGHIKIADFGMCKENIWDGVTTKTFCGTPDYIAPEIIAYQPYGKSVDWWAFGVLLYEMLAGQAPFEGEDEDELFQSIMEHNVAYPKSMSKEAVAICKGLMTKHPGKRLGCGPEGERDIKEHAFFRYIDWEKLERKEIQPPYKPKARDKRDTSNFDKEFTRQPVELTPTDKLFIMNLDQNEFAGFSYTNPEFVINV
# Chain of STK11 (human) (Q15831 whole entry, looked up): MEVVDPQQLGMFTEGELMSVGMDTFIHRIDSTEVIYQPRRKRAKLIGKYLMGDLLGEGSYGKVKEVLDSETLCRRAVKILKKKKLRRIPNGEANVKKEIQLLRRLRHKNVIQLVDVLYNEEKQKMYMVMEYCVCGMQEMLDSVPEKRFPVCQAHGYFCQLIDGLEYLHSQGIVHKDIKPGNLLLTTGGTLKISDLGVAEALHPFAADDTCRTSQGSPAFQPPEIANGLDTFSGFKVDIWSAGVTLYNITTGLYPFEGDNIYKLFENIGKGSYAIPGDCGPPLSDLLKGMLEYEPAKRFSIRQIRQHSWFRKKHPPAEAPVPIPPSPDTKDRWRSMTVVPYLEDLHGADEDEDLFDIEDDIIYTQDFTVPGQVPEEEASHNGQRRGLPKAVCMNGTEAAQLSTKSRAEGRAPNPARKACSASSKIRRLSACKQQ
compound,measurement,setting,value
COc1ccc(OC)c2c(=S)c3ccccc3[nH]c12,residual activity,ACVR1B (human),108%
same,residual activity,ADRBK1 (human),92.5%
same,residual activity,BRSK1 (human),93.7%
same,residual activity,CAMK1 (human),75.2%
same,residual activity,CDC42BPA (human),82.7%
same,residual activity,CDK2 CCNA2 (human),88.6%
same,residual activity,CDK6 CCND1 (human),102%
same,residual activity,CLK3 (human),96.3%
same,residual activity,CSNK1G2 (human),103%
same,residual activity,DMPK (human),99.6%
same,residual activity,DSTYK (human),91.3%
same,residual activity,DYRK3 (human),98.2%
same,residual activity,ERBB4 (human),104%
same,residual activity,FGFR2 (human),95.8%
same,residual activity,FYN (human),101%
same,residual activity,GSK3B (human),61.3%
same,residual activity,IRAK1 (human),91.1%
same,residual activity,KIT (human),78.6%
same,residual activity,LRRK2 (human),98%
same,residual activity,MAP3K3 (human),117%
same,residual activity,MAPK14 (human),104%
same,residual activity,MST1R (human),87.9%
same,residual activity,NEK1 (human),102%
same,residual activity,NLK (human),98.8%
same,residual activity,PAK3 (human),98%
same,residual activity,PBK (human),107%
same,residual activity,PIM1 (human),93%
same,residual activity,PIM2 (human),103%
same,residual activity,PLK2 (human),97.6%
same,residual activity,PRKCB1 (human),101%
same,residual activity,PRKCH (human),86.2%
same,residual activity,PRKCZ (human),99.4%
same,residual activity,PRKD2 (human),88.1%
same,residual activity,RET (human),82.8%
same,residual activity,ROCK1 (human),97.8%
same,residual activity,RPS6KA6 KD1 KD2 (human),85.2%
same,residual activity,SGK3 (human),90.7%
same,residual activity,STK11 (human),84.4%
same,residual activity,STK25 (human),96.2%
same,residual activity,STK33 (human),98.4%
same,residual activity,TGFBR1 (human),99.1%
CN([C@@H](Cc1ccc(OS(=O)(=O)c2cccc3cnccc23)cc1)C(=O)N1CCN(c2ccccc2)CC1)S(=O)(=O)c1cccc2cnccc12,residual activity,ACVR1B (human),98.7%
same,residual activity,ADRBK1 (human),97.5%
same,residual activity,BRSK1 (human),96.4%
same,residual activity,CAMK1 (human),105%
same,residual activity,CDC42BPA (human),98.9%
same,residual activity,CDK2 CCNA2 (human),99.8%
same,residual activity,CDK6 CCND1 (human),91.6%
same,residual activity,CLK3 (human),103%
same,residual activity,CSNK1G2 (human),100%
same,residual activity,DMPK (human),108%
same,residual activity,DSTYK (human),97.4%
same,residual activity,DYRK3 (human),112%
same,residual activity,ERBB4 (human),103%
same,residual activity,FGFR2 (human),98.1%
same,residual activity,FYN (human),101%
same,residual activity,GSK3B (human),96.6%
same,residual activity,IRAK1 (human),95.4%
same,residual activity,KIT (human),96.3%
same,residual activity,LRRK2 (human),97.1%
same,residual activity,MAP3K3 (human),96.4%
same,residual activity,MAPK14 (human),91%
same,residual activity,MST1R (human),94.4%
same,residual activity,NEK1 (human),102%
same,residual activity,NEK2 (human),87.4%
same,residual activity,NLK (human),106%
same,residual activity,PAK3 (human),102%
same,residual activity,PBK (human),99.2%
same,residual activity,PIM1 (human),106%
same,residual activity,PIM2 (human),98.5%
same,residual activity,PLK2 (human),102%
same,residual activity,PRKCB1 (human),95.9%
same,residual activity,PRKCH (human),89.8%
same,residual activity,PRKCZ (human),101%
same,residual activity,PRKD2 (human),100%
same,residual activity,RET (human),105%
same,residual activity,ROCK1 (human),97.9%
same,residual activity,RPS6KA6 KD1 KD2 (human),100%
same,residual activity,SGK3 (human),104%
same,residual activity,STK11 (human),99%
same,residual activity,STK25 (human),98.8%
same,residual activity,STK33 (human),97.3%
Nc1nnc2[nH]c3ccccc3nc1-2,residual activity,ACVR1B (human),99.9%
same,residual activity,ADRBK1 (human),101%
same,residual activity,BRSK1 (human),91.5%
same,residual activity,CAMK1 (human),94.4%
same,residual activity,CDC42BPA (human),95.4%
same,residual activity,CDK2 CCNA2 (human),86.2%
same,residual activity,CDK6 CCND1 (human),105%
same,residual activity,CLK3 (human),94.3%
same,residual activity,CSNK1G2 (human),93.8%
same,residual activity,DMPK (human),98.4%
same,residual activity,DSTYK (human),96%
same,residual activity,DYRK3 (human),102%
same,residual activity,FGFR2 (human),98.1%
same,residual activity,FYN (human),96.1%
same,residual activity,GSK3B (human),99.7%
same,residual activity,IRAK1 (human),88.9%
same,residual activity,KIT (human),100%
same,residual activity,LRRK2 (human),90.5%
same,residual activity,MAP3K3 (human),103%
same,residual activity,MAPK14 (human),96.6%
same,residual activity,MST1R (human),105%
same,residual activity,NEK1 (human),91.7%
same,residual activity,NEK2 (human),99.6%
same,residual activity,NLK (human),95.2%
same,residual activity,PAK3 (human),98.3%
same,residual activity,PBK (human),106%
same,residual activity,PIM1 (human),94%
same,residual activity,PIM2 (human),105%
same,residual activity,PLK2 (human),101%
same,residual activity,PRKCB1 (human),103%
same,residual activity,PRKCH (human),87.9%
same,residual activity,PRKCZ (human),106%
same,residual activity,PRKD2 (human),94.5%
same,residual activity,RET (human),97.1%
same,residual activity,ROCK1 (human),99%
same,residual activity,RPS6KA6 KD1 KD2 (human),94.2%
same,residual activity,SGK3 (human),96.6%
same,residual activity,STK11 (human),85.7%
same,residual activity,STK25 (human),99.9%
same,residual activity,STK33 (human),98.7%
same,residual activity,TGFBR1 (human),98.1%
Nc1nccc(-c2c(-c3ccc(F)cc3)ncn2C2CCNCC2)n1,residual activity,ACVR1B (human),121%
same,residual activity,ADRBK1 (human),99.7%
same,residual activity,BRSK1 (human),99.7%
same,residual activity,CAMK1 (human),107%
same,residual activity,CDC42BPA (human),101%
same,residual activity,CDK2 CCNA2 (human),100%
same,residual activity,CDK6 CCND1 (human),101%
same,residual activity,CLK3 (human),102%
same,residual activity,CSNK1G2 (human),119%
same,residual activity,DMPK (human),99.3%
same,residual activity,DSTYK (human),102%
same,residual activity,DYRK3 (human),96%
same,residual activity,ERBB4 (human),86.8%
same,residual activity,FGFR2 (human),104%
same,residual activity,FYN (human),91.1%
same,residual activity,GSK3B (human),101%
same,residual activity,IRAK1 (human),114%
same,residual activity,KIT (human),98.4%
same,residual activity,LRRK2 (human),99.9%
same,residual activity,MAP3K3 (human),101%
same,residual activity,MST1R (human),100%
same,residual activity,NEK1 (human),100%
same,residual activity,NEK2 (human),103%
same,residual activity,NLK (human),12.1%
same,residual activity,PAK3 (human),105%
same,residual activity,PBK (human),94.9%
same,residual activity,PIM1 (human),97%
same,residual activity,PIM2 (human),100%
same,residual activity,PLK2 (human),93%
same,residual activity,PRKCB1 (human),91%
same,residual activity,PRKCH (human),91.9%
same,residual activity,PRKCZ (human),106%
same,residual activity,PRKD2 (human),50.4%
same,residual activity,RET (human),89.4%
same,residual activity,ROCK1 (human),103%
same,residual activity,RPS6KA6 KD1 KD2 (human),109%
same,residual activity,SGK3 (human),97.5%
same,residual activity,STK11 (human),89.1%
same,residual activity,STK25 (human),99.8%
same,residual activity,STK33 (human),98.6%
same,residual activity,TGFBR1 (human),102%
